# Measurements taken from US8110575B2, “Compounds” (Boehringer Ingelheim International GmbH, priority 2007, dated 2012).
# Target: T1, human CGRP receptor (Homo sapiens, UniProt O60894+Q16602)
# T1 construct: SK-N-MC membranes (˜20 μg protein) are incubated for 180 minutes at ambient temperature; endogenous in cells; host or cells: SK-N-MC cells (membrane preparation)
# Assay: Binding studies with SK-N-MC cells (expressing the human CGRP receptor)
# Conditions: SK-N-MC membranes, 125I-iodotyrosyl-CGRP displacement
# Method: A. Binding Studies with SK-N-MC Cells (Expressing the Human CGRP Receptor)
# SK-N-MC membranes (˜20 μg protein) are incubated for 180 minutes at ambient temperature with 50 pM ^125I-iodotyrosyl-Calcitonin-Gene-Related Peptide and increasing concentrations of the test substances in a total volume of […] (assay buffer: 10 mM tris, 50 mM NaCl, 5 mM MgCl2, 1 mM EDTA, pH=7.4). The incubation is ended by rapid filtration through GF/B-glass fibre filters treated with polyethyleneimine (0.1%) using a cell harvester. The protein-bound radioactivity is measured using a gamma counter. Non-specific binding is defined as the bound radioactivity after the presence of 1 μM BIBN4096BS during incubation.
# The concentration binding curves are analysed using computer-aided non-linear curve fitting.
# T1 sequence (Q16602 23-461): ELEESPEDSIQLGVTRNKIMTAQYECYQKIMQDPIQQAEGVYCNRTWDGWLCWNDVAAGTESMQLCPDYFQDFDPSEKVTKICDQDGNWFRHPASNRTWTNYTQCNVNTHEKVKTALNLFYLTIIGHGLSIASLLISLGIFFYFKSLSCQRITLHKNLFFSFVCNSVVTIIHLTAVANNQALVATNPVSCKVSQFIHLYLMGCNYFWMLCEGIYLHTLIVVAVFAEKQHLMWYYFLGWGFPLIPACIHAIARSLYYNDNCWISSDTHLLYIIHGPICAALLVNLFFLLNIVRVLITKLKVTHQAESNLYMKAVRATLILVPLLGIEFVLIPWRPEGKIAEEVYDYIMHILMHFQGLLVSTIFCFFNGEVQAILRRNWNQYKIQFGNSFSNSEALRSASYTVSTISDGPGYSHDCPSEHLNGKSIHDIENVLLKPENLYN
# T1 sequence (O60894 27-148): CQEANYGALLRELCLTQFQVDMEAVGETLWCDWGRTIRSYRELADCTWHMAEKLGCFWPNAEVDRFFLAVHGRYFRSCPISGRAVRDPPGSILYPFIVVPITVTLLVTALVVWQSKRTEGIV
row,Ki [nM],SMILES
1,535,O=C1Nc2ccccc2C2(CCN(c3cc(C(=O)N4CCc5ccccc54)ncn3)CC2)O1 [(3)]
2,120,O=C(c1cc(Nc2ccc3c(c2)CC2(C3)C(=O)Nc3ncccc32)ncn1)N(CC(F)(F)F)c1ccccc1 (stereo not shown) [(6)]
3,132,CN1C(=O)NC(=O)C12Cc1ccc(Nc3cc(C(=O)N4CCc5ccccc54)ncn3)cc1C2 (stereo not shown) [(9)]
4,15,O=C(c1cc(Nc2ccc3c(c2)CC2(C3)C(=O)Nc3ncccc32)ncn1)N1CCc2ccccc21 (stereo not shown) [(1)]
